Read-outs that look alike come from different tables or passages of the source.
Tests used:
[1] = Solubility / formulation behaviour; format: physicochemical
Description: The following two formulations are particularly suited to compounds 3.48a and 4.2a and allow their in vivo administration, at concentrations of about 20-100 mg/kg, intravenously: […]

Acute in vivo toxicity = conditions: healthy mice; 50, 25, 10, 5 and 1 mg/kg; maximum dose 50 mg/kg
Description: Studies of the acute toxicity of compounds 3.48a and 4.2a were performed on healthy mice for a concentration range of 50, 25, 10, 5 and 1 mg/kg.

GBM line C6 = test: Boyden chamber migration test, C6; format: cell-based, rat; conditions: various extracellular matrix substrates
Gli4 GBM stem cells = test: Boyden chamber migration test, Gli4; format: cell-based, human; conditions: 24 hours, read-out: Inhibition constant Ki, migration
Description: (§1) The effects of compounds 3.48a, 4.2a and 5.6d on the migration of cancer cells (human glioblastoma line SNB75 or primary culture of human glioblastoma Gli4F1, on the one hand, and MDAMB 435 and A431 on the other hand), were determined by performing a standard migration test in a Boyden chamber (treatment of the cells for 24 hours).
(§2) For this test, the compounds were dissolved in vitro and used in culture in 0.3% of DMSO. The interior of the inserts was covered with the extracellular matrix protein studied (laminin-1, vitronectin or fibronectin). The cells pretreated at various concentrations and untreated (controls) were deposited in the inserts covered with said protein at a rate of 50 000 cells/500 μl/insert in a medium containing 0.1% of BSA (bovine serum albumin).
(§3) 500 μl of medium containing 10% fetal calf serum were then placed in each well of a Companion plate so as to allow the formation of a chemotactic gradient across the porous membrane. After 24 hours of migration in the incubator at 37° C., the supernatent was removed and the inserts rinsed with PBS on each face. The cells were counted with a microscope (Zeiss Axiophot, magnification ×200). This gives a percentage of migration relative to the untreated cells.
(§4) Table 2 below gives, for compound 3.48a, the values for the inhibition constants (Ki) for the migration of a human GBM line (SNB75), of GBM stem cell lines (Gli4, Gli7) and of a breast cancer line MDAMB231, in a Boyden chamber, on various extracellular matrix protein supports. Tables 3 and 4 below give, for compounds 4.2a and 5.6d, the values of the inhibition constants (Ki) for the migration of a melanoma line (MDAMB-435) or of an epidermoid cancer line (A431), in a Boyden chamber, on various extracellular matrix protein supports. The inhibitory effect depends on the line and the stem cells used, but also on the extracellular matrix protein support used.

Gli4 cells = test: Gli4 intracranial model; format: in vivo, mice
Description: 2×10^5 Gli4 cells were injected into a group of mice (right striatal injection, injection coordinates: bregma 0 L-L: L: −1.5 mm P: −3.5-2.5). The mice were immediately treated for four weeks at a rate of three injections at 10 mg/kg of compound 3.48a per week (formulation 1, group B) or using 100 μl of NaCl according to the same treatment protocol (group A) and sacrificed after ten weeks.
In the group of control mice (group A), dispersed Gli4 cells are observed, which migrated along the corpus callosum and passed into the other hemisphere. […] This migration reflects migration along the white matter, as observed in human glioblastoma multiformes (dispersion as an intra-fascicular growth along the white matter).

SNB75 human GBM line = test: Boyden chamber migration test, SNB75; format: cell-based; conditions: for Ki: SNB75, 24 hours, read-out: Inhibition constant Ki, migration
Description: as §1, §2, §3, §4

Gli7 GBM stem cells = test: Boyden chamber migration test, Gli7; format: cell-based, human; conditions: 24 hours, read-out: Inhibition constant Ki, migration
Description: as §1, §2, §3, §4

SNB75 cells = test: SNB75 subcutaneous model; format: in vivo, mice
Description: Nude female mice 4-5 weeks old with an average weight of […], supplied by the R. Janvier breeding center, were used. The mice were kept in a pathogen-free environment and with food and water present ad libitum. The experiments were commenced after one week of acclimatizing the mice to their new environment.
A suspension of 5×10^6 SNB75 cells in 100 μl of sterile PBS (phosphate-buffered saline, provided by Fisher) was injected into each mouse (subcutaneous administration without anesthesia). Once the mice presented tumors with volumes of between […], groups were formed so that each of them contained an equivalent number of large, medium and small tumors. The protocol was conducted with five groups of seven mice. The five groups of mice were treated using one of the five formulations described below:
Group A: Treatment by injection of 100 μl of NaCl (control N° 1).
Group B: Treatment with compound 3.48a at a rate of 10 mg/kg with volumes of 100 to 150 μl of formulation 2 according to the weight of the mice.
Group C: Treatment with compound 3.48a at a rate of 5 mg/kg with volumes of 100 to 150 μl of formulation 2 according to the weight of the mice.
Group D: Treatment with temozolomide at a rate of 20 mg/kg with volumes of 100 to 150 μl according to the weight of the mice. Temozolomide is a comparative anticancer active principle sold under the name Temodal by the laboratory Schering Plough. It is indicated for treating glioblastoma multiforme.
Group E: Treatment by injection of 100 to 150 μl according to the weight of the mice of formulation 2 not containing compound 3.48a (control N° 2).
Each batch was treated by intravenous injection into the caudal vein of 100 to 150 μl of solution (precision syringe and G25X1 needle ultrafine wall, VWR). Three injections per week for four weeks were performed. The mice were weighed at each injection. The sizes of the tumors were measured twice a week for a period of four weeks. The mice were sacrificed after four weeks and the tumors and organs (liver, kidney, spleen, brain, intestine, heart, muscles) were removed. A histological analysis was performed on these organs.

[2] = tested on: epidermoid cancer line A431; test: Boyden chamber migration test, A431; format: cell-based, human; conditions: for Ki: 24 hours, read-out: Inhibition constant Ki, migration
Description: as §1, §2, §3, §4

A431 line = test: MTT antiproliferative test, A431; format: cell-based, human; conditions: A-431, read-out: IC50, inhibition of proliferation
Description: (§5) The lines MDAMB-435 and A431 are seeded at a density of 3000 cells per well in 96-well plates. After 24 hours, compounds 4.2a and 5.6d resuspended in 100% DMSO are added at concentrations of 0-0.001-0.010-0.1-1-10-50 μM for a final constant amount of DMSO of 0.3%. The cultures are maintained for a further 72 hours and an MTT colorimetric test is then performed. 100 μl of a solution of MTT at 5 mg/ml in PBS are added to the culture medium, which is left to incubate for 3 hours. The culture medium is removed and the cells are lyzed by adding 100 μL of a 4 mM HCl solvent, 0.1% Nondet P-40 (NP40) in isopropanol. The yellow tetrazolium MTT salt (3-(4,5-dimethylthiazol-2-yl)-2,5-diphenyl tetrazolium bromide), when it is reduced by the mitochondrial succinate dehydrogenase of active live cells, forms a blue-violet formazan product. The medium then changes from yellow to blue-violet. The intensity of this coloration at 590 nm is proportional to the number of live cells present during the test and gives an indication of the metabolic activity of these cells.
(§6) Table 1 gives the concentration values for 50% inhibition of proliferation (IC50) for compounds 4.2a and 5.6d on lines derived from bowel cancer (CaCo2), skin cancer (A431, MDAMB-435, B16F10), breast cancer (MDAMB-431), […] (HuH7), prostate cancer (DU145) and brain cancer (SNB75, Gli4, Gli7).

B16F10 = test: MTT antiproliferative test, B16F10; format: cell-based; conditions: Mus musculus, B16-F10, read-out: IC50, inhibition of proliferation
Description: as §5, §6

MDAMB-231 = test: MTT antiproliferative test, MDAMB-231; format: cell-based; conditions: Homo sapiens, MDA-MB-231, read-out: IC50, inhibition of proliferation
Description: as §5, §6

GLi4 = test: MTT antiproliferative test, Gli4; format: cell-based; conditions: Homo sapiens, read-out: IC50, inhibition of proliferation
Description: (§7) Several cancer cell lines were used for the in vivo or in vitro biological tests: • SNB75 is a human glioblastoma line derived from a primary culture, i.e. derived from a primary malignant cancer tumor. It forms part of the panel of 59 cancer lines referenced by the NCI. Its Cosmic reference number published by the Welcome Trust Sanger Institute is 905982. This line was supplied by a person (M.D. Ph.D of the department of “Radiation Oncology”, Stanford University Medical Center). It was cultured in Ham's F-12 and DMEM (1/1) supplemented with 10% fetal bovine serum. The experiments were performed with cells in the exponential growth phase. • Gli4 (or Gli4F11) and Gli7 are cultures of cancer strain cells derived from human glioblastomas (primary cultures). These lines are CD133^+, CD15^+ which are multipotent and tumorigenic in animals. They were established by J. P. Hugnot (INM INSERM U-1051 Eq. 4), and described in Guichet, P. O. et al, Glia 2013, 61(2), 225-239; • C6 is a rat glioblastoma line. It is referenced in the ATCC under the reference CCL-107. • MDAMB-435 is a melanoma line derived from a mammary melanoma. It forms part of the panel of 59 cancer lines referenced by the NCI. It is referenced at the ATCC under the reference HTB-129. It was cultured in Ham's F-12 and DMEM (1/1) supplemented with 10% fetal bovine serum. […]

CaCo2 = test: MTT antiproliferative test, CaCo2; format: cell-based; conditions: Homo sapiens, Caco-2, read-out: IC50, inhibition of proliferation
Description: as §5, §6

Gli7 = test: MTT antiproliferative test, Gli7; format: cell-based; conditions: Homo sapiens, read-out: IC50, inhibition of proliferation
Description: as §7

C6 glioblastoma line = test: MTT antiproliferative test, C6; format: cell-based; conditions: Rattus norvegicus, read-out: IC50, inhibition of proliferation
Description: as §7

SNB75 glioblastoma line = test: MTT antiproliferative test, SNB75; format: cell-based; conditions: Homo sapiens, SNB-75, read-out: IC50, inhibition of proliferation
Description: as §7

HuH7 = test: MTT antiproliferative test, HuH7; format: cell-based; conditions: Homo sapiens, Huh-7, read-out: IC50, inhibition of proliferation
Description: as §5, §6

DU145 = test: MTT antiproliferative test, DU145; format: cell-based; conditions: Homo sapiens, DU-145, read-out: IC50, inhibition of proliferation
Description: as §5, §6

MDAMB-435 melanoma line = test: MTT antiproliferative test, MDAMB-435; format: cell-based; conditions: Homo sapiens, MDA-MB-435, 72 hours, read-out: IC50, inhibition of proliferation
Description: as §5, §6

[3] = 10 and 5 mg/kg i.v. (groups B and C), three injections per week for four weeks

O=[P@@]1(c2ccccc2)O[C@H](COCc2ccccc2)[C@@H](OCc2ccccc2)[C@H](OCc2ccccc2)[C@H]1O [Compound 3.48a, 4,5-bis-benzyloxy-6-benzyloxymethyl-2-phenyl-2-oxo-2λ^5-[1,2]oxaphosphinan-3-ol]
Complexation in cyclodextrins [1]: non-complexible in cyclodextrins | Solubility ([1]; water, water-soluble solvents): insoluble in water, in numerous water-soluble solvents | Mortality, acute toxicity (Acute in vivo toxicity): No mortality was observed | Inhibition of cell migration (GBM line C6): inhibits the cell migration | Ki (Gli4 GBM stem cells; support Fibronectin): 1 nM | Ki (Gli4 GBM stem cells; support Laminin): 11 nM | Ki (Gli4 GBM stem cells; support Vitronectin): 5 nM | Cell migration in brain during treatment (Gli4 cells; 10 mg/kg, three injections per week, four-week treatment (formulation 1)): made it possible to inhibit cell migration | Cell growth and migration after stopping the treatment (Gli4 cells; final six weeks after the four-week treatment at 10 mg/kg): resumption of the growth and migration of the cells was observed | IC50 (SNB75 human GBM line; Homo sapiens, SNB-75, SNB75 line, on fibronectin or vitronectin, read-out: Concentration for a 50% decrease in migration of the cancer cells): 1 to 100 nM | Ki (SNB75 human GBM line; support Fibronectin): 27 nM | Ki (SNB75 human GBM line; support Laminin): 23000 nM | Ki (SNB75 human GBM line; support Vitronectin): 87 nM | Ki (Gli7 GBM stem cells; support Fibronectin): 37 nM | Ki (Gli7 GBM stem cells; support Laminin): 310 nM | Ki (Gli7 GBM stem cells; support Vitronectin): 371 nM | Mortality (SNB75 cells; [3]): none of the mice died | Weight loss (SNB75 cells; [3]): no weight loss was observed | Growth of the primary tumor (SNB75 cells; 10 and 5 mg/kg i.v. (groups B and C), three injections per week, after four weeks, vs control groups): a very great reduction in the growth of the primary tumor | Development of metastases (SNB75 cells; 10 and 5 mg/kg i.v. (groups B and C), controls all developed metastases in liver and intestine): None of the mice treated with compound 3.48a (groups B and C) developed metastases | Metastases in the liver (FIG. 1A) (SNB75 cells; a mouse from group B (10 mg/kg), eight weeks after implantation): absence of metastases in the liver

CC(=O)N[C@@H]1[C@H]2OC(C)(C)O[C@H]2[C@@H]([C@H]2COC(C)(C)O2)O[P@@]1(=O)c1ccccc1 [Compound 5.6d]
IC50 ([2]; Homo sapiens, A-431, on fibronectin or vitronectin, read-out: Concentration for a 50% decrease in migration of the cancer cells): 10 to 100 nM | Ki ([2]; support Fibronectin): 8 nM | Ki ([2]; support Laminin): 13 nM | Ki ([2]; support Vitronectin): 20 nM | IC50 (A431 line; A431 line (human epidermoid cancer)): 100 nM | IC50 (A431 line; Homo sapiens, A431, 72 hours, MTT): 130 nM | IC50 (B16F10): 14900 nM | IC50 (MDAMB-231): 23200 nM | IC50 (GLi4): 540 nM | IC50 (CaCo2): 36000 nM | IC50 (Gli7): 500 nM | IC50 (C6 glioblastoma line): 650 nM | IC50 (SNB75 glioblastoma line): 650 nM | IC50 (HuH7): 22000 nM | IC50 (DU145): 31200 nM | IC50 (MDAMB-435 melanoma line): 9610 nM

Cn1nnc2c(C(N)=O)ncn2c1=O [temozolomide, reference compound]
Weight loss (SNB75 cells; 20 mg/kg i.v. (group D), remaining four mice): substantial weight losses | Mortality (SNB75 cells; 20 mg/kg i.v. (group D), seven mice): three of the seven mice died after the third injection | Lethality at higher dose (SNB75 cells; dose of 40 mg/kg): leads to the death of the mice before the end of the experimentation period
